Experimental data from US6075132A, “Ursodeoxycholic acid derivatives and methods for producing them” (Bio Research Corporation of Yokohama, priority 1998, dated 2000).
≈ marks a conversion by molar mass, not a printed value. Read-outs that look alike come from different tables or passages of the source.

Test: Solubility in water (membrane-filtered supernatant after 18 h stirring; phenol-sulfuric acid method and HPLC)
Assay type: physicochemical
Conditions: for solubility in water relative to that of ursodeoxycholic acid: 1080 min
Protocol: 20 mg of the ursodeoxycholic acid derivative prepared above and shown in Table 1 below was sampled, to which was added 0.2 ml of water and stirred for 18 hours. The resulting supernatant was taken out through filtration with a membrane filter (0.45μm), and analyzed according to the phenol-sulfuric acid method and through HPLC. The condition for HPLC was as follows:
Column: YMC's YMC-Pack ODS-AQ-303 (4.6×250 mm)
Detector: Photo-diode array detector (202 nm)
Amount Charged into Column: 20 μl

Row | Structure (SMILES) | solubility in water relative to that of ursodeoxycholic acid | solubility at 18 h (water) | Solubility in Water (water, 18 h) | solubility at 18 h (water, stirred for 18 hours, read-out: Solubility in Water)
1 | C[C@H](CCC(=O)O)[C@H]1CC[C@H]2[C@@H]3[C@@H](OC(=O)COC4O[C@H](CO)[C@@H](O)[C@H](O)[C@H]4O)C[C@@H]4C[C@H](OC(=O)COC5O[C@H](CO)[C@@H](O)[C@H](O)[C@H]5O)CC[C@]4(C)[C@H]3CC[C@]12C (stereo partly drawn) [3,7-GLG-ursodeoxycholic acid, diglycosyloxyacetyl-3,7-ursodeoxycholic acid] | about 2500 times | 95000 µg/mL (≈ 114000 µM) | 95000 µg/mL (≈ 114000 µM) | –
2 | C[C@H](CCC(=O)OCCOC1O[C@H](CO)[C@@H](O)[C@H](O)[C@H]1O)[C@H]1CC[C@H]2[C@@H]3[C@@H](O)C[C@@H]4C[C@H](O)CC[C@]4(C)[C@H]3CC[C@]12C (stereo partly drawn) [24-GLG-ursodeoxycholic acid, glycosyloxyethyl-24-ursodeoxycholic acid] | about 13 times | 511 µg/mL (≈ 853 µM) | – | –
3 | C[C@H](CCC(=O)O)[C@H]1CC[C@H]2[C@@H]3[C@@H](O)C[C@@H]4C[C@H](O)CC[C@]4(C)[C@H]3CC[C@]12C [Ursodeoxycholic acid, ursodeoxycholic acid] | – | – | – | 38 µg/mL (≈ 96.8 µM)
